Experimental data taken from patent US20260022142A1, “MACROCYCLIC IMMUNOMODULATORS” (Bristol-Myers Squibb Company, priority 2022, published 2026).
pIC50: −log10 of the molar value. Numbered stars: 1 amine (or outer) side, 2 acyl side, 3 side chain; on linkers, the order of the positions; unused ones are H or OH. Bridge positions count the residues as written; N and C are the ends. Square brackets hold non-standard residues; d marks the D form. Peptide text beside a SMILES is read from it. * marks the point of attachment. ξ: configuration not given here. Phe(4-CH2CH2COOH) = N[C@@H](Cc1ccc(CCC(=O)O)cc1)C(=O)O; Tyr(3,5-F2) = N[C@@H](Cc1cc(F)c(O)c(F)c1)C(=O)O; Phe(4-COOH) = N[C@@H](Cc1ccc(C(=O)O)cc1)C(=O)O; Bip = N[C@@H](Cc1ccc(-c2ccccc2)cc1)C(=O)O; NH(CH2)14COOH = O=C(O)CCCCCCCCCCCCCCN*; Phe(3-F) = N[C@@H](Cc1cccc(F)c1)C(=O)O; Phe(3-Me) = Cc1cccc(C[C@H](N)C(=O)O)c1; NH(CH2)12COOH = O=C(O)CCCCCCCCCCCCN*; PEG6 = NCCOCCOCCOCCOCCOCCOCCC(=O)O; Val(3-OH) = CC(C)(O)[C@H](N)C(=O)O; X8 = CC(C)(F)C(N[*:1])C(=O)[*:2]; hArg = N=C(N)NCCCC[C@H](N)C(=O)O; 4Pal = N[C@@H](Cc1ccncc1)C(=O)O; Cha = N[C@@H](CC1CCCCC1)C(=O)O; Cit = NC(=O)NCCC[C@H](N)C(=O)O; Thr(3ξ) = CC(O)[C@H](N)C(=O)O; 12Ado = NCCCCCCCCCCCC(=O)O; Carboxymethyl = O=C(O)C*; Orn = NCCC[C@H](N)C(=O)O; Aun = NCCCCCCCCCCC(=O)O; Dab = NCC[C@H](N)C(=O)O; Nva = CCC[C@H](N)C(=O)O; Dap = NC[C@H](N)C(=O)O; AEEA = NCCOCCOCC(=O)O

Target: T1, PD-1/PD-L1 interaction (PE-labeled human PD-L1-Ig binding to Jurkat cell line over-expressing human PD-1) (Homo sapiens, UniProt Q15116)
T1 construct: expressed in transfected cells; host or cells: Jurkat
Test: Jurkat-PD-1 Cell Binding High-Content Screening Assay (CBA)
Assay type: cell-based
Conditions: Jurkat cell line over-expressing human PD-1; PE-labeled PD-L1-Ig 20 nM final; read-out: Jurkat hPD1-PDL1 IC50
Summary of the method: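 Jurkat cells over-expressing human PD-1 (8×10^3 per well, DMEM/10% FCS) preincubated with compound 2 h at 37° C, then PE-labeled human PD-L1-Ig (20 nM final) added for 1 h. Cells fixed with paraformaldehyde, Hoechst-stained, and bound fluorescence quantified by high-content imaging.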

T1 sequence (Q15116 25-288): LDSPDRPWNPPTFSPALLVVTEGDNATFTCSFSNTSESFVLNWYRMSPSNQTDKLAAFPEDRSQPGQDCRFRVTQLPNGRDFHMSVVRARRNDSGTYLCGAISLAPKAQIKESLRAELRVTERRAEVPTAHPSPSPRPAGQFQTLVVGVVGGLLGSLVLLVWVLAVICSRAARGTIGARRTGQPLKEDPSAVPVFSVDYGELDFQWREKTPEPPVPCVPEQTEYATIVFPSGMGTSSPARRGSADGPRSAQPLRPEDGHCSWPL

| SMILES | pIC50 |
| --- | --- |
| CC(=O)NCCCC[C@@H]1NC(=O)[C@H](Cc2ccc(-c3ccccc3)cc2)NC(=O)[C@H](C(C)C)NC(=O)[C@H](Cc2cccc(C)c2)NC(=O)[C@H](CC(=O)O)NC(=O)[C@H](Cc2ccc(OCC(=O)O)cc2)NC(=O)[C@H](C(C)O)NC(=O)CSC[C@@H](C(=O)N[C@H](CC(N)=O)C(=O)NCCCCCCCCCCC(=O)O)NC(=O)[C@H](CCC(N)=O)NC(=O)[C@H](C(C)C)NC(=O)[C@H](CC2CCCCC2)NC(=O)[C@H](CCN)NC(=O)[C@@H](CC(C)C)NC(=O)[C@H](CCCN)NC1=O (stereo partly drawn) [Compound 3437] ({CH2CO}-[Thr(3ξ)]Y(Carboxymethyl)D[Phe(3-Me)]V[Bip]K(Ac)[Orn][dL][Dab][Cha]VQC[dN][Aun]-OH; thioether N-14) | 7.95 |
| Cc1cccc(C[C@@H]2NC(=O)[C@H](CC(=O)O)NC(=O)[C@H](Cc3ccc(OCC(=O)O)cc3)NC(=O)[C@H](Cc3ccncc3)NC(=O)CSC[C@@H](C(=O)N[C@@H](CCN)C(=O)NCCCCCCCCCCC(=O)O)NC(=O)[C@H](CO)NC(=O)[C@H](C(C)(C)O)NC(=O)[C@H](CC3CCCCC3)NC(=O)[C@H](CCN)NC(=O)[C@@H](CC(C)C)NC(=O)[C@H](CCCN)NC(=O)[C@H](Cc3ccc(OCC(=O)O)cc3)NC(=O)[C@H](Cc3ccc(-c4ccccc4)cc3)NC(=O)[C@H](Cc3cc(F)c(O)c(F)c3)NC2=O)c1 [Compound 2185] ({CH2CO}-[4Pal]Y(Carboxymethyl)D[Phe(3-Me)][Tyr(3,5-F2)][Bip]Y(Carboxymethyl)[Orn][dL][Dab][Cha][Val(3-OH)]SC[Dab][Aun]-OH; thioether N-14) | 8.02 |
| CCC[C@@H]1NC(=O)CSC[C@@H](C(=O)N[C@@H](CCN)C(=O)NCCOCCOCC(=O)NCCOCCOCC(=O)NCCCCCCCCCCCCC(=O)O)NC(=O)[C@H](CO)NC(=O)[C@H](C(C)(C)O)NC(=O)[C@H](CC2CCCCC2)NC(=O)[C@H](CCN)NC(=O)[C@@H](CC(C)C)NC(=O)[C@H](CCCN)NC(=O)[C@H](Cc2ccc(C(=O)O)cc2)NC(=O)[C@H](Cc2ccc(-c3ccccc3)cc2)NC(=O)[C@H](Cc2ccc(C(=O)O)cc2)NC(=O)[C@H](Cc2cccc(C)c2)NC(=O)[C@H](CC(=O)O)NC(=O)[C@H](Cc2ccc(OCC(=O)O)cc2)NC1=O [Compound 2883] ({CH2CO}-[Nva]Y(Carboxymethyl)D[Phe(3-Me)][Phe(4-COOH)][Bip][Phe(4-COOH)][Orn][dL][Dab][Cha][Val(3-OH)]SC[Dab][AEEA][AEEA]-{NH(CH2)12COOH}; thioether N-14) | 8.31 |
| Cc1cccc(C[C@@H]2NC(=O)[C@H](CC(=O)O)NC(=O)[C@H](Cc3ccc(OCC(=O)O)cc3)NC(=O)[C@H](CCCNC(=N)N)NC(=O)CSC[C@@H](C(=O)N[C@@H](CCN)C(=O)NCCCCCCCCCCC(=O)O)NC(=O)[C@H]([C@@H](C)O)NC(=O)C(C(C)(C)F)NC(=O)[C@H](CC3CCCCC3)NC(=O)[C@H](CCN)NC(=O)[C@@H](CC(C)C)NC(=O)[C@H](CCCN)NC(=O)[C@H](Cc3ccc(OCC(=O)O)cc3)NC(=O)[C@H](Cc3ccc(-c4ccccc4)cc3)NC(=O)[C@H](Cc3ccc(O)cc3)NC2=O)c1 (stereo partly drawn) [Compound 2264] ({CH2CO}-RY(Carboxymethyl)D[Phe(3-Me)]Y[Bip]Y(Carboxymethyl)[Orn][dL][Dab][Cha][X8]TC[Dab][Aun]-OH; thioether N-14) | 7.88 |
| Cc1cccc(C[C@@H]2NC(=O)[C@H](CC(=O)O)NC(=O)[C@H](Cc3ccc(OCC(=O)O)cc3)NC(=O)[C@H](CN)NC(=O)CSC[C@@H](C(=O)N[C@@H](CCN)C(=O)NCCOCCOCC(=O)NCCCCCCCCCCC(=O)O)NC(=O)[C@H](C(C)O)NC(=O)[C@H](Cc3ccc(O)cc3)NC(=O)[C@H](CC3CCCCC3)NC(=O)[C@H](CCN)NC(=O)[C@@H](CC(C)C)NC(=O)[C@H](CCCN)NC(=O)[C@H](CCCNC(N)=O)NC(=O)[C@H](Cc3ccc(-c4ccccc4)cc3)NC(=O)[C@H](C(C)C)NC2=O)c1 (stereo partly drawn) [Compound 2583] ({CH2CO}-[Dap]Y(Carboxymethyl)D[Phe(3-Me)]V[Bip][Cit][Orn][dL][Dab][Cha]Y[Thr(3ξ)]C[Dab][AEEA][Aun]-OH; thioether N-14) | 7.49 |
| CC(C)C[C@H]1NC(=O)[C@H](CCCN)NC(=O)[C@H](Cc2ccc(O)cc2)NC(=O)[C@H](Cc2ccc(-c3ccccc3)cc2)NC(=O)[C@H](C(C)C)NC(=O)[C@H](Cc2c[nH]c3ccccc23)NC(=O)[C@H](CC(=O)O)NC(=O)[C@H](Cc2ccc(OCC(=O)O)cc2)NC(=O)[C@H](CCCCNC(=N)N)NC(=O)CSC[C@@H](C(=O)N[C@@H](CCN)C(=O)NCCCCCCCCCCC(=O)O)NC(=O)[C@H](C(C)O)NC(=O)[C@H](C(C)C)NC(=O)[C@H](CC2CCCCC2)NC(=O)[C@H](CCN)NC1=O (stereo partly drawn) [Compound 3410] ({CH2CO}-[hArg]Y(Carboxymethyl)DWV[Bip]Y[Orn][dL][Dab][Cha]V[Thr(3ξ)]C[Dab][Aun]-OH; thioether N-14) | 7.69 |
| Cc1cccc(C[C@@H]2NC(=O)[C@H](CC(=O)O)NC(=O)[C@H](Cc3ccc(OCC(=O)O)cc3)NC(=O)[C@H](CN)NC(=O)CSC[C@@H](C(=O)NCC(=O)N[C@@H](CCC(=O)O)C(=O)NCCCCCCCCCCC(=O)O)NC(=O)[C@H]([C@@H](C)O)NC(=O)[C@H](C(C)C)NC(=O)[C@H](CC3CCCCC3)NC(=O)[C@H](CCN)NC(=O)[C@@H](CC(C)C)NC(=O)[C@H](CCCN)NC(=O)[C@H](CCCNC(N)=O)NC(=O)[C@H](Cc3ccc(-c4ccccc4)cc3)NC(=O)[C@H](C(C)C)NC2=O)c1 [Compound 1292] ({CH2CO}-[Dap]Y(Carboxymethyl)D[Phe(3-Me)]V[Bip][Cit][Orn][dL][Dab][Cha]VTCGE[Aun]-OH; thioether N-14) | 7.74 |

More lines, in order of rising pIC50, values ahead:

| pIC50 | SMILES |
| --- | --- |
| 6.55 | Cc1cccc(C[C@@H]2NC(=O)[C@H](CC(=O)O)NC(=O)[C@H](Cc3ccc(OCC(=O)O)cc3)NC(=O)[C@H](CN)NC(=O)CSC[C@@H](C(=O)N[C@@H](CCCN)C(=O)NCCCCCCCCCCCCCCC(=O)O)NC(=O)[C@H](C(C)O)NC(=O)[C@H](C(C)C)NC(=O)[C@H](CC3CCCCC3)NC(=O)[C@H](CCN)NC(=O)[C@@H](CC(C)C)NC(=O)[C@H](CCCN)NC(=O)[C@H](CCCNC(N)=O)NC(=O)[C@H](Cc3ccc(-c4ccccc4)cc3)NC(=O)[C@H](C(C)C)NC2=O)c1 (stereo partly drawn) [Compound 3124] ({CH2CO}-[Dap]Y(Carboxymethyl)D[Phe(3-Me)]V[Bip][Cit][Orn][dL][Dab][Cha]V[Thr(3ξ)]C[Orn]-{NH(CH2)14COOH}; thioether N-14) |
| 6.75 | Cc1cccc(C[C@@H]2NC(=O)[C@H](CC(=O)O)NC(=O)[C@H](Cc3ccc(OCC(=O)O)cc3)NC(=O)[C@H](CN)NC(=O)CSC[C@@H](C(=O)N[C@@H](CCN)C(=O)NCCCCCCCCCCC(=O)O)NC(=O)[C@@H](CCC(=O)O)NC(=O)[C@H](C(C)C)NC(=O)[C@H](CC(C)C)NC(=O)[C@H](CCN)NC(=O)[C@@H](CC(C)C)NC(=O)[C@H](CCCN)NC(=O)[C@H](Cc3ccc(O)cc3)NC(=O)[C@H](Cc3ccc(-c4ccccc4)cc3)NC(=O)[C@H](C(C)C)NC2=O)c1 [Compound 2757] ({CH2CO}-[Dap]Y(Carboxymethyl)D[Phe(3-Me)]V[Bip]Y[Orn][dL][Dab]LV[dE]C[Dab][Aun]-OH; thioether N-14) |
| 7.82 | CC[C@H](C)[C@@H]1NC(=O)[C@H](Cc2ccc(-c3ccccc3)cc2)NC(=O)[C@H](C(C)C)NC(=O)[C@H](Cc2cccc(C)c2)NC(=O)[C@H](CC(=O)O)NC(=O)[C@H](Cc2ccc(OCC(=O)O)cc2)NC(=O)[C@H](CN)NC(=O)CSC[C@@H](C(=O)NCCOCCOCC(=O)N[C@@H](CCN)C(=O)NCCCCCCCCCCC(=O)O)NC(=O)[C@H](CN)NC(=O)[C@H](C(C)C)NC(=O)[C@H](CC2CCCCC2)NC(=O)[C@H](CCN)NC(=O)[C@@H](CC(C)C)NC(=O)[C@H](CCCN)NC1=O [Compound 2628] ({CH2CO}-[Dap]Y(Carboxymethyl)D[Phe(3-Me)]V[Bip]I[Orn][dL][Dab][Cha]V[Dap]C[AEEA][Dab][Aun]-OH; thioether N-14) |
| 7.91 | Cc1cccc(C[C@@H]2NC(=O)[C@H](CC(=O)O)NC(=O)[C@H](Cc3ccc(OCC(=O)O)cc3)NC(=O)[C@H](CN)NC(=O)CSC[C@@H](C(=O)N[C@@H](CCN)C(=O)NCCCCCCCCCCC(=O)O)NC(=O)[C@H](CCCN)NC(=O)[C@H](C(C)C)NC(=O)[C@H](CC3CCCCC3)NC(=O)[C@H](CCN)NC(=O)[C@@H](CC(C)C)NC(=O)[C@H](CCCN)NC(=O)[C@H](Cc3ccc(O)cc3)NC(=O)[C@H](Cc3ccc(-c4ccccc4)cc3)NC(=O)[C@H](C(C)C)NC2=O)c1 [Compound 2841] ({CH2CO}-[Dap]Y(Carboxymethyl)D[Phe(3-Me)]V[Bip]Y[Orn][dL][Dab][Cha]V[Orn]C[Dab][Aun]-OH; thioether N-14) |
| 8.14 | Cc1cccc(C[C@@H]2NC(=O)[C@H](CC(=O)O)NC(=O)[C@H](Cc3ccc(CCC(=O)O)cc3)NC(=O)[C@H](CCN)NC(=O)CSC[C@@H](C(=O)N[C@@H](CCN)C(=O)NCCCCCCCCCCC(=O)O)NC(=O)[C@H](CO)NC(=O)[C@H](C(C)(C)O)NC(=O)[C@H](CC3CCCCC3)NC(=O)[C@H](CCN)NC(=O)[C@@H](CC(C)C)NC(=O)[C@H](CCCN)NC(=O)[C@H](Cc3ccc(OCC(=O)O)cc3)NC(=O)[C@H](Cc3ccc(-c4ccccc4)cc3)NC(=O)[C@H](Cc3cccc(F)c3)NC2=O)c1 [Compound 2144] ({CH2CO}-[Dab][Phe(4-CH2CH2COOH)]D[Phe(3-Me)][Phe(3-F)][Bip]Y(Carboxymethyl)[Orn][dL][Dab][Cha][Val(3-OH)]SC[Dab][Aun]-OH; thioether N-14) |
| 8.19 | CC(C)C[C@H]1NC(=O)[C@H](CCCN)NC(=O)[C@H](CCC(=O)O)NC(=O)[C@H](Cc2ccc(-c3ccccc3)cc2)NC(=O)[C@H](C(C)C)NC(=O)[C@H](Cc2c[nH]c3ccccc23)NC(=O)[C@H](CC(=O)O)NC(=O)[C@H](Cc2ccc(C(=O)O)cc2)NC(=O)[C@H](Cc2ccc(OCC(=O)O)cc2)NC(=O)CSC[C@@H](C(=O)N[C@@H](CC(N)=O)C(=O)NCCOCCOCCOCCOCCOCCOCCC(=O)N[C@@H](CCCN)C(=O)NCCCCCCCCCCCC(=O)O)NC(=O)[C@H](CO)NC(=O)[C@H](C(C)C)NC(=O)[C@H](CC2CCCCC2)NC(=O)[C@H](CCN)NC1=O [Compound 3045] ({CH2CO}-Y(Carboxymethyl)[Phe(4-COOH)]DWV[Bip]E[Orn][dL][Dab][Cha]VSCN[PEG6][Orn][12Ado]-OH; thioether N-14) |
